Test results reported in PubChem BioAssay (NCI).
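96-well plates; 48 h exposure; 5 concentrations. Endpoints by linear interpolation between flanking doses. Not reached: highest tested concentration assigned. The concentration for 50% growth inhibition is given as GI50. TGI: total growth inhibition.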

Columns and labels:
Test in all cases: NCI anticancer screen, dose series, 48 h
NCI-H460 lung = system: NCI-H460 lung
SK-OV-3 ovarian = system: SK-OV-3 ovarian
SF-268 CNS = system: SF-268 CNS
HCT-116 colon = system: HCT-116 colon
HT29 colon = system: HT29 colon
LOX IMVI melanoma = system: LOX IMVI melanoma
SF-295 CNS = system: SF-295 CNS
A549 NSCLC = system: A549 NSCLC
OVCAR-4 ovarian = system: OVCAR-4 ovarian
SK-MEL-28 melanoma = system: SK-MEL-28 melanoma
SNB-19 CNS = system: SNB-19 CNS
OVCAR-3 ovarian = system: OVCAR-3 ovarian
COLO 205 colon = system: COLO 205 colon
CAKI-1 renal = system: CAKI-1 renal
MDA-MB-435 = system: MDA-MB-435
HS 578T breast = system: HS 578T breast
SNB-75 CNS = system: SNB-75 CNS
ACHN renal = system: ACHN renal
NCI-H23 lung = system: NCI-H23 lung
OVCAR-8 ovarian = system: OVCAR-8 ovarian
EKVX NSCLC = system: EKVX NSCLC
UO-31 renal = system: UO-31 renal
MALME-3M melanoma = system: MALME-3M melanoma
BT-549 breast = system: BT-549 breast
NCI-H226 lung = system: NCI-H226 lung
U251 CNS = system: U251 CNS
HCC-2998 colon = system: HCC-2998 colon

With COc1ccc(CN2c3ccccc3Sc3ccccc32)cc1F the GI50 (NCI-H460 lung) was 0.379 µM, the TGI (NCI-H460 lung) was > 100 µM and the GI50 (SK-OV-3 ovarian) was 0.559 µM. The TGI (SK-OV-3 ovarian) was > 100 µM, the GI50 (SF-268 CNS) was 1.14 µM and the TGI (SF-268 CNS) was > 100 µM. For the same compound, the GI50 (HCT-116 colon) was 0.437 µM, the TGI (HCT-116 colon) was > 100 µM and the GI50 (HT29 colon) was 0.352 µM. The TGI (HT29 colon) was > 100 µM, the GI50 (LOX IMVI melanoma) was 0.798 µM and the TGI (LOX IMVI melanoma) was > 100 µM. For the same compound, the GI50 (SF-295 CNS) was 0.323 µM, the TGI (SF-295 CNS) was > 48.4 µM and the GI50 (A549 NSCLC) was 0.675 µM. For the same compound, the TGI (A549 NSCLC) was > 100 µM, the GI50 (OVCAR-4 ovarian) was 0.964 µM and the TGI (OVCAR-4 ovarian) was > 100 µM. The GI50 (SK-MEL-28 melanoma) was > 55 µM, the TGI (SK-MEL-28 melanoma) was > 100 µM and the GI50 (SNB-19 CNS) was 0.463 µM. The TGI (SNB-19 CNS) was > 100 µM, the GI50 (OVCAR-3 ovarian) was 0.312 µM and the TGI (OVCAR-3 ovarian) was 2.04 µM. The GI50 (COLO 205 colon) was 0.31 µM, the TGI (COLO 205 colon) was 1.36 µM and the GI50 (CAKI-1 renal) was 0.399 µM. For the same compound, the TGI (CAKI-1 renal) was > 100 µM, the GI50 (MDA-MB-435) was 0.198 µM and the TGI (MDA-MB-435) was 0.469 µM. For the same compound, the GI50 (HS 578T breast) was 0.458 µM, the TGI (HS 578T breast) was > 100 µM and the GI50 (SNB-75 CNS) was 0.257 µM. For the same compound, the TGI (SNB-75 CNS) was 98.8 µM, the GI50 (ACHN renal) was 1.25 µM and the TGI (ACHN renal) was > 100 µM. The GI50 (NCI-H23 lung) was 0.682 µM, the TGI (NCI-H23 lung) was > 100 µM and the GI50 (OVCAR-8 ovarian) was 0.712 µM. The TGI (OVCAR-8 ovarian) was > 100 µM, the GI50 (EKVX NSCLC) was 0.78 µM and the TGI (EKVX NSCLC) was > 100 µM. For the same compound, the GI50 (UO-31 renal) was 1.12 µM, the TGI (UO-31 renal) was > 100 µM and the GI50 (MALME-3M melanoma) was > 100 µM. The TGI (MALME-3M melanoma) was > 100 µM, the GI50 (BT-549 breast) was 1.34 µM and the TGI (BT-549 breast) was > 23.4 µM. The GI50 (NCI-H226 lung) was > 47.1 µM, the TGI (NCI-H226 lung) was > 100 µM and the GI50 (U251 CNS) was 0.561 µM. The TGI (U251 CNS) was > 100 µM and the GI50 (HCC-2998 colon) was 1.11 µM.
